Measured values reported in US8333970B2, “Methods of monitoring the efficacy of anti-CD40 antibodies in treating a subject having an inflammatory or autoimmune disease” (Novartis AG, priority 2005, dated 2012).
“Also recorded” adds a separate entry of the source.

Key:
[1] = system: CD40-expressing target cells; assay: Antibody dependent cellular cytotoxicity (ADCC); type: cell-based; settings: native antibodies
Excerpt: (§1) 2, 2000, and PCT International Application No. PCT/US01/30857, also titled “Human Anti-CD40 Antibodies,” filed Oct. 2, 2001, both of which are herein incorporated by reference in their entirety.
Clones from 7 other hybridomas were identified as having antagonistic activity. Based on their relative antagonistic potency and ADCC activities, two hybridoma clones were selected for further evaluation (Table 1 below). They are named 131.2F8.5.9 (5.9) and 153.8E2.D10.D6.12.12 (12.12).

soluble CD40 = soluble CD40 (Homo sapiens, UniProt P25942); assay: ELISA-type assay, binding to soluble CD40; settings: ELISA-type assays
Chain of soluble CD40 (P25942 21-193 limits assumed): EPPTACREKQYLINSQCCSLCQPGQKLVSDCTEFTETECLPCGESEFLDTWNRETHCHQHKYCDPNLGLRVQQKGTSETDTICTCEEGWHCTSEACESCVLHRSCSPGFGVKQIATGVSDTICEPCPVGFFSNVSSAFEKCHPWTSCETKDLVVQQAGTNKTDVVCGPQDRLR
Excerpt: as §1

cell-surface CD40 = cell-surface CD40 (Homo sapiens, UniProt P25942); assay: Flow cytometric (FACS) assay of CD40 binding and CD40-ligand blocking
Chain of cell-surface CD40 (P25942 21-277): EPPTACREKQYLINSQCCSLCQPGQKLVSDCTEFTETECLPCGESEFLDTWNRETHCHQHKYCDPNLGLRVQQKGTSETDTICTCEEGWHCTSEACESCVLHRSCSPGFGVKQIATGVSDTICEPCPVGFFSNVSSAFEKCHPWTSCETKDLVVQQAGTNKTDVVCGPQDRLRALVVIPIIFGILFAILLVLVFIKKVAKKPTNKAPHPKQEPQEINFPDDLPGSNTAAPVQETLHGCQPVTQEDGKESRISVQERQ
Excerpt: as §1

[2] = system: B cells from normal human subjects; assay: In vitro proliferation of normal human B cells / lymphocytes; type: cell-based
Excerpt: as §1
(§2) 4, 2003, Nov. 26, 2003, and Apr. 27, 2004, and assigned U.S. Patent Application Nos. 60/517,337 , 60/525,579, and 60/565,710, respectively, and International Patent Application No. PCT/US2004/037152, also entitled “Antagonist Anti-CD40 Monoclonal Antibodies and Methods for Their Use,” filed Nov. 4, 2004; the contents of each of which are herein incorporated by reference in their entirety.

[3] = system: cancer cells from NHL and CLL patients; assay: In vitro CD40 ligand-mediated proliferation of patient cancer cells; type: cell-based, human
Excerpt: as §2

[4] = system: primary cancer cells from NHL patients; assay: ADCC on primary cancer cells; type: cell-based, human; settings: in vitro
Excerpt: as §2

normal human B cells [5] = assay: Western blot of apoptosis and survival proteins in sCD40L-stimulated B cells; type: cell-based
Protocol: (§3) In these experiments, 0.6×10^6 normal human B cells from healthy donors (percent purity between 85-95%) were stimulated with 1 μg/ml sCD40L (Alexis Corporation, Bingham, Nottinghamshire, UK). […] Cells were collected at 0, 20 minutes, 2 hours, 6 hours, 18 hours, and 26 hours. Cleaved Caspase-9, cleaved Caspase-3, cleaved PARP, and β-actin controls were detected in cell lysates by Western blot.
as §3, with “Mcl-1, XIAP, CD40,” for “Cleaved Caspase-9, cleaved Caspase-3, cleaved PARP,”
as §3, with “percent” for “(percent”, “24” for “0, 20 minutes, 2 hours, 6 hours, 18 hours, and 26”, “Cleaved” for “Cleaved Caspase-9, cleaved Caspase-3, cleaved”
as §3, with “22” for “0, 20 minutes, 2 hours, 6 hours, 18 hours, and 26”, “Mcl-1, XIAP,” for “Cleaved Caspase-9, cleaved Caspase-3,”

normal human B cells [6] = assay: Western blot of phosphorylated signaling proteins in sCD40L-stimulated B cells; type: cell-based; settings: 1 μg/ml sCD40L, 20 minutes
Protocol: In these experiments, 1.0×10^6 normal human B cells from healthy donors (percent purity between 85-95%) were stimulated with 1 μg/ml sCD40L (Alexis Corporation, Bingham, Nottinghamshire, UK). […] Cells were collected at 0 and 20 minutes. Phosphorylated IKKα (Ser180) and IKKβ (Ser 181) and total IKKβ controls were detected in cell lysates by Western blot.
(§4) In these experiments, 1.0×10^6 normal human B cells from healthy donors (percent purity between 85-95%) were serum starved in 1% FBS-containing media and stimulated with 1 μg/ml sCD40L (Alexis Corporation, Bingham, Nottinghamshire, UK). […] Cells were collected at 0 and 20 minutes. Phospho-IKKα, phospho-IKKβ, total IKKβ, phospho-ERK, total ERK, phospho-AKT, total AKT, phospho-p38, and total p38 were detected in cell lysates by Western blot.
as §4, with “Phospho-ERK,” for “Phospho-IKKα, phospho-IKKβ, total IKKβ, phospho-ERK, total ERK,”, “phospho-IKKα/β,” for “phospho-p38,”, “[…]” for “total p38”

[7] = target: T1, CD40-TRAF2/3 signaling complex (Homo sapiens, UniProt P25942); assay: CD40 immunoprecipitation, TRAF2/TRAF3 Western blot; type: cell-based; settings: 1 μg/ml sCD40L, 20 minutes
T1 construct: normal human B cells from healthy donors; endogenous in cells; host or cells: normal human B cells from healthy donors
T1 sequence (P25942 21-277, one chain of several): as the sequence (P25942 21-277) above
Protocol: In these experiments, 4.0×10^6 normal human B cells from healthy donors (percent purity between 85-95%) were serum starved for four hours in 1% FBS-containing media and stimulated with 1 μg/ml sCD40L (Alexis Corporation, Bingham, Nottinghamshire, UK) for 20 minutes. Cells were collected at 0 and 20 minutes. CD40 was immunoprecipitated using polyclonal anti-CD40 (Santa Cruz Biotechnology, CA), and was probed in a Western blot with anti-TRAF2 mAb (Santa Cruz Biotechnology, CA), anti-TRAF3 mAb (Santa Cruz Biotechnology, CA), and anti-CD40 mAb (Santa Cruz Biotechnology, CA).

monocytes = assay: CD40L-induced production of VEGF; type: cell-based
Excerpt: In another experiment, CD40L-induced production of VEGF in monocytes is examined in a manner similar to that described above.

[8] = 1 μg/ml sCD40L, 10 μg/ml antibody, 0 to 26 hours
[9] = 1 μg/ml sCD40L, 0.5, 2 and 10 μg/ml antibody, 22 hours

## CHIR-12.12: fully human anti-CD40 monoclonal antibody of the IgG1 isotype, hybridoma 153.8E2.D10.D6.12.12, ATCC PTA-5543, SEQ ID NO:2 and 4
[1]
  ADCC activity, killing of CD40-expressing target cells: have ADCC activity; also recorded: able to kill CD40-expressing target cells
Soluble CD40
  binding to soluble CD40: bind soluble CD40
cell-surface CD40; FACS analysis
  specific binding to human CD40: bind specifically to human CD40
cell-surface CD40; flow cytometric assays
  displacement of CD40-ligand pre-bound to cell surface CD40: displace the pre-bound CD40-ligand; also recorded: can compete off CD40-ligand pre-bound to cell surface CD40
  prevention of CD40-ligand binding to cell-surface CD40: prevent the binding of CD40-ligand to cell-surface CD40; also recorded: can prevent CD40-ligand binding
[2]; human peripheral blood lymphocytes
  CD40L-induced lymphocyte proliferation: inhibits CD40L-induced lymphocyte proliferation
[2]; in vitro
  effect on CD40 ligand-mediated proliferation of normal B cells: act as antagonist anti-CD40 antibodies; also recorded: inhibit in vitro CD40 ligand-mediated proliferation of normal B cells
[2]; lymphocytes from normal subjects, antibody alone
  induction of proliferation of human lymphocytes (agonist activity): do not induce strong proliferation; also recorded: does not induce the proliferation of human peripheral blood lymphocytes
[3]
  CD40 ligand-mediated proliferation of cancer cells: inhibiting in vitro CD40 ligand-mediated proliferation of cancer cells from NHL and CLL patients
[4]
  killing of primary cancer cells by ADCC: kill primary cancer cells from NHL patients by ADCC
Normal human B cells [5]; [8]
  cleaved Caspase-9, cleaved Caspase-3, cleaved PARP: increased cleavage of Caspase-9, Caspase-3, and PARP; also recorded: resulted in an increase of these cleavage products
  expression of Mcl-1 and XIAP over time: reduction of XIAP and Mcl-1; also recorded: resulted in a decrease in expression of these proteins
Normal human B cells [5]; 1 μg/ml sCD40L, 0.01-1.0 μg/ml antibody, 24 hours
  PARP cleavage: increase of PARP cleavage in sCD40L stimulated cells in a dose-dependent manner
Normal human B cells [5]; [9]
  Mcl-1 and XIAP expression: reduced Mcl-1 and XIAP expression
  cleaved PARP expression: increased cleaved PARP expression
Normal human B cells [6]; 10 μg/ml antibody
  phosphorylation of IKKα (Ser180) and IKKβ (Ser 181): abrogated this response to sCD40L stimulation
Normal human B cells [6]; serum starved, 1 and 10 μg/ml antibody
  IKKα/β, ERK, AKT and p38 phosphorylation: inhibited phosphorylation; also recorded: abrogated the effects of sCD40L stimulation on these signaling pathways
Normal human B cells [6]; serum starved
  phospho-ERK, phospho-AKT, phospho-IKKα/β, compared with PI3K/AKT and MEK inhibitors: abrogated the phosphorylation of all of these signal transduction molecules
[7]
  CD40 expression: no changes in CD40 expression
  formation of the CD40-TRAF2/3 signaling complex: abrogated formation of the CD40-TRAF2/3 signaling complex
monocytes
  CD40L-induced production of VEGF: inhibit CD40L-induced production of VEGF
